Test results from patent US8507656B2, “Stabilized angiopoietin-2 antibodies and uses thereof” (MedImmune Limited, priority 2008, dated 2013).

Experiments:
[1] = tested on: collagen induced arthritis
Colo205 xenograft tumors = experiment: Colo205 xenograft model of colorectal cancer; format: in vivo; details: 3.19.3 10 mg/kg 2×wk i.p., Gemcitabine 50 mg/kg q3dx2 i.v., combination of both
Method: The anti-tumor activity of 3.19.3 was evaluated in combination with Gemcitabine in the Colo205 xenograft model of colorectal cancer. Colo205 cells were cultured in flasks as routine until the cells reached sub-confluence. Cell suspensions containing approximately 3×10E6 cells were injected subcutaneously into the flank of female Swiss nude mice. When the tumor volume reached 200 mm^3, the mice were randomized in treatment groups of 8-10 mice and the treatments were initiated. 3.19.3 (10 mg/kg) in saline was injected intraperitoneally, twice per week for 2 weeks. Gemcitabine (50 mg/kg) was administered by intravenous administration following a q3d schedule. The dimensions of each tumor and body weights were measured at least twice per week. The volume of the tumor was calculated as: Volume=Length×(Width)×0.5 (cm^3). […] The % tumor growth inhibition achieved is as follows: […]

MCF7 xenograft tumors = experiment: MCF7 breast cancer xenograft model; format: in vivo; details: 3.19.3 10 mg/kg 2×wk i.p., AZD6495 30 mg/kg bid p.o. 18 d, combination of both
Method: The anti-tumor activity of the anti-Angiopoietin-2 monoclonal antibody 3.19.3 in combination with the small molecule CSF1R tyrosine kinase inhibitor AZD6495 (4-[(2,4-difluorophenyl)amino]-7-ethoxy-6-(4-methylpiperazin-1-yl)quinoline-3-carboxamide) was evaluated in a xenograft model of human breast carcinoma using the MCF7 cell line (FIG. 4a).
Materials and Methods: Breast carcinoma MCF7 cells were cultured in flasks as routine until the cells reach sub-confluence. Immunodeficient 7-10 week old male NCr-nude mice were subcutaneously implanted with 8×10^6 MCF7 cells suspended 1:1 in Matrigel in the right flank. […]
The mice were then randomized into cohorts containing 15 mice once the tumors reached approximately 100 mm^3. […] The body weights of each animal, and the dimensions of each tumor were measured twice per week. The volume of the tumor was calculated as: Volume=Length×(Width)^2×0.5 cm^3, or by bilateral Vernier caliper measurement and, taking length to be the longest diameter across the tumor and width the corresponding perpendicular, calculated using the formula (π/6)×(length×width)×√(length×width). Growth inhibition from the start of treatment was assessed by comparison of the differences in tumor volume between control and treated groups.

[2] = means ± SEM, 3.19.3 10 mg/kg i.p every 3 days, hIgG i.p, Prednisolone 3 mg/kg p.o daily, 14 days from disease onset

Substance: 3.19.3: fully human anti-Ang-2 monoclonal antibody, wild type control; light chain SEQ ID No. 1, heavy chain SEQ ID No. 2 [Antibody 3.19.3]
- clinical signs of disease progression (arthritic score) and histological assessment of synovitis and joint destruction (in words) ([1]; 3.19.3 10 mg/kg, vs vehicle control): Significant reductions
- % Inhibition (of AUC of clinical disease progression) [1, 2]: 64.3% ± 8.6%
- Area Under Curve (AUC) of clinical disease progression [1, 2]: 36.0 ± 8.7
- tolerability by mean body weight (in words) ([1]; mouse, in vivo, 10 mg/kg): well tolerated
- % tumor growth inhibition (Colo205 xenograft tumors): 74%
- % tumor growth inhibition (MCF7 xenograft tumors): 62%
